Numbers after ± are expanded uncertainties.
Tests used:
[1] = molar heat capacity at constant pressure; conditions: 101.33 kPa, Small sample (50 mg) DSC
[2] = Molar enthalpy of transition or fusion; conditions: Crystal; DSC
[3] = Crystal; for Normal melting temperature: DTA; for vapor or sublimation pressure: Calculated from knudsen effusion weight loss

CC(O)c1ccccc1 (configuration not stated) [1-phenylethanol]
[1], Liquid
Conditions | molar heat capacity at constant pressure [J/K/mol]
297.15 K | 262.4 ± 8.7
298.15 K | 263.1 ± 8.7
299.15 K | 263.9 ± 8.8
300.15 K | 264.6 ± 8.8
301.15 K | 265.1 ± 8.8
302.15 K | 265.8 ± 8.8
303.15 K | 267.1 ± 8.9
304.15 K | 267.9 ± 8.9
305.15 K | 268.5 ± 8.9
306.15 K | 269.4 ± 8.9
307.15 K | 269.8 ± 8.9
308.15 K | 271 ± 9
309.15 K | 271.7 ± 9
310.15 K | 272.4 ± 9
311.15 K | 273 ± 9.1
312.15 K | 273.7 ± 9.1
313.15 K | 274.7 ± 9.1
314.15 K | 275.1 ± 9.1
315.15 K | 275.7 ± 9.1
316.15 K | 276.4 ± 9.2
317.15 K | 277.3 ± 9.2
318.15 K | 278.2 ± 9.2
319.15 K | 279.1 ± 9.3
320.15 K | 279.6 ± 9.3
321.15 K | 280.3 ± 9.3
322.15 K | 281 ± 9
323.15 K | 281.5 ± 9.3
324.15 K | 282.2 ± 9.4
325.15 K | 283 ± 9.4
326.15 K | 283.9 ± 9.4
327.15 K | 284.4 ± 9.4
328.15 K | 284.8 ± 9.4
329.15 K | 285.4 ± 9.5
330.15 K | 286 ± 9.5
331.15 K | 286.7 ± 9.5
332.15 K | 287.3 ± 9.5
333.15 K | 288.1 ± 9.6
334.15 K | 288.9 ± 9.6
335.15 K | 289.6 ± 9.6
336.15 K | 290.2 ± 9.6
337.15 K | 290.6 ± 9.6
338.15 K | 291.2 ± 9.7
339.15 K | 292 ± 9.7
340.15 K | 292.5 ± 9.7
341.15 K | 293 ± 9.7
342.15 K | 293.6 ± 9.7
343.15 K | 294.2 ± 9.8
344.15 K | 295.2 ± 9.8
345.15 K | 295.7 ± 9.8
346.15 K | 296.3 ± 9.8
347.15 K | 296.9 ± 9.8
348.15 K | 297.5 ± 9.9
349.15 K | 298.1 ± 9.9
350.15 K | 298.3 ± 9.9
351.15 K | 298.8 ± 9.9
352.15 K | 299.2 ± 9.9
353.15 K | 300.7 ± 10
354.15 K | 300.8 ± 10
355.15 K | 301.7 ± 10
356.15 K | 302.8 ± 10
357.15 K | 303.4 ± 10
358.15 K | 303.8 ± 10
359.15 K | 303.9 ± 10
360.15 K | 304.5 ± 10
361.15 K | 305.3 ± 10
362.15 K | 305.7 ± 10
363.15 K | 306.1 ± 10
364.15 K | 307 ± 10
365.15 K | 307.7 ± 10
366.15 K | 308.4 ± 10
367.15 K | 308.6 ± 10
368.15 K | 308.9 ± 10
369.15 K | 309.5 ± 10
370.15 K | 310.3 ± 10
371.15 K | 311.1 ± 10
372.15 K | 311.6 ± 10
373.15 K | 311.8 ± 10

Conditions | Molar enthalpy of transition or fusion [kJ/mol] | Normal melting temperature [°C]
[2] | 16 ± 2 | –
[3] | – | 18.6 ± 0.8

OC(c1ccccc1)c1ccccc1 [diphenylmethanol]
[1], Crystal
Conditions | molar heat capacity at constant pressure [J/K/mol]
259.15 K | 202.8 ± 6.7
260.15 K | 203.3 ± 6.7
261.15 K | 203.9 ± 6.8
262.15 K | 204.6 ± 6.8
263.15 K | 205.2 ± 6.8
264.15 K | 206.1 ± 6.8
265.15 K | 206.8 ± 6.9
266.15 K | 207.6 ± 6.9
267.15 K | 208.5 ± 6.9
268.15 K | 209.5 ± 7
269.15 K | 210.3 ± 7
270.15 K | 211.1 ± 7
271.15 K | 211.7 ± 7
272.15 K | 212.5 ± 7.1
273.15 K | 213.8 ± 7.1
274.15 K | 214.1 ± 7.1
275.15 K | 215.2 ± 7.1
276.15 K | 215.9 ± 7.2
277.15 K | 216.9 ± 7.2
278.15 K | 216.8 ± 7.2
279.15 K | 217.6 ± 7.2
280.15 K | 218.5 ± 7.2
281.15 K | 219.4 ± 7.3
282.15 K | 220.2 ± 7.3
283.15 K | 221 ± 7.3
284.15 K | 221.8 ± 7.4
285.15 K | 222.8 ± 7.4
286.15 K | 223.3 ± 7.4
287.15 K | 224.3 ± 7.4
288.15 K | 225 ± 7.5
289.15 K | 225.8 ± 7.5
290.15 K | 226.5 ± 7.5
291.15 K | 227.4 ± 7.5
292.15 K | 228.2 ± 7.6
293.15 K | 229.1 ± 7.6
294.15 K | 229.9 ± 7.6
295.15 K | 230.7 ± 7.7
296.15 K | 231.9 ± 7.7
297.15 K | 232 ± 7.7
298.15 K | 233 ± 7.7
299.15 K | 233.7 ± 7.8
300.15 K | 234.5 ± 7.8
301.15 K | 235.4 ± 7.8
302.15 K | 236.2 ± 7.8
303.15 K | 237 ± 7.9
304.15 K | 237.8 ± 7.9
305.15 K | 238.7 ± 7.9
306.15 K | 239.6 ± 7.9
307.15 K | 240.7 ± 8
308.15 K | 241.8 ± 8
309.15 K | 242.5 ± 8
310.15 K | 243.3 ± 8.1
311.15 K | 244.2 ± 8.1
312.15 K | 245.2 ± 8.1
313.15 K | 246 ± 8.2
314.15 K | 247 ± 8.2
315.15 K | 247.8 ± 8.2
316.15 K | 248.8 ± 8.3
317.15 K | 249.8 ± 8.3
318.15 K | 250.7 ± 8.3
319.15 K | 251.7 ± 8.4
320.15 K | 252.5 ± 8.4
321.15 K | 253.5 ± 8.4
322.15 K | 254.4 ± 8.4
323.15 K | 255.3 ± 8.5
324.15 K | 256.4 ± 8.5
325.15 K | 257.4 ± 8.5
326.15 K | 258.5 ± 8.6
327.15 K | 259.5 ± 8.6
328.15 K | 260.7 ± 8.6
329.15 K | 261.8 ± 8.7
330.15 K | 263.1 ± 8.7
331.15 K | 265.1 ± 8.8
332.15 K | 267 ± 8.9

Conditions | Molar enthalpy of transition or fusion [kJ/mol] | Normal melting temperature [°C]
[2] | 23.7 ± 0.5 | –
[3] | – | 66.2 ± 0.8

Conditions | mass density [kg/m3]
[3], 298 K, 101.33 kPa, Pycnometric method | 1210 ± 40

[3]
Conditions | vapor or sublimation pressure [kPa]
301.97 K | 0.000128 ± 7e-06
304.52 K | 0.00018 ± 1e-05
305.16 K | 0.000198 ± 1.1e-05
308.1 K | 0.00028 ± 1.5e-05
311.41 K | 0.000446 ± 2.4e-05
314.06 K | 0.00061 ± 3e-05
317.02 K | 0.00091 ± 5e-05

OC(c1ccccc1)(c1ccccc1)c1ccccc1 [triphenylmethanol]
[1], Crystal
Conditions | molar heat capacity at constant pressure [J/K/mol]
259.15 K | 283 ± 9.4
260.15 K | 283.6 ± 9.4
261.15 K | 284.9 ± 9.5
262.15 K | 285.6 ± 9.5
263.15 K | 286.4 ± 9.5
264.15 K | 288.3 ± 9.6
265.15 K | 289.5 ± 9.6
266.15 K | 290.4 ± 9.6
267.15 K | 291.2 ± 9.7
268.15 K | 290.8 ± 9.6
269.15 K | 292.3 ± 9.7
270.15 K | 293.4 ± 9.7
271.15 K | 294.3 ± 9.8
272.15 K | 295.3 ± 9.8
273.15 K | 296.5 ± 9.8
274.15 K | 297.4 ± 9.9
275.15 K | 297.3 ± 9.9
276.15 K | 298.6 ± 9.9
277.15 K | 299.8 ± 9.9
278.15 K | 301.2 ± 10
279.15 K | 302.1 ± 10
280.15 K | 302.8 ± 10
281.15 K | 303.4 ± 10
282.15 K | 304.7 ± 10
283.15 K | 306 ± 10
284.15 K | 305.9 ± 10
285.15 K | 307 ± 10
286.15 K | 307.4 ± 10
287.15 K | 308.9 ± 10
288.15 K | 309.3 ± 10
289.15 K | 310.1 ± 10
290.15 K | 310.6 ± 10
291.15 K | 311.8 ± 10
292.15 K | 312.5 ± 10
293.15 K | 312.9 ± 10
294.15 K | 313.5 ± 10
295.15 K | 314.7 ± 10
296.15 K | 315.1 ± 10
297.15 K | 316.1 ± 10
298.15 K | 316.4 ± 10
299.15 K | 316.9 ± 10
300.15 K | 319.7 ± 11
301.15 K | 320.5 ± 11
302.15 K | 321.2 ± 11
303.15 K | 322.1 ± 11
304.15 K | 323 ± 11
305.15 K | 324.7 ± 11
306.15 K | 325.1 ± 11
307.15 K | 326.1 ± 11
308.15 K | 327.2 ± 11
309.15 K | 328.5 ± 11
310.15 K | 329.3 ± 11
311.15 K | 330 ± 11
312.15 K | 331.2 ± 11
313.15 K | 331.9 ± 11
314.15 K | 332.7 ± 11
315.15 K | 333.4 ± 11
316.15 K | 334.4 ± 11
317.15 K | 335.9 ± 11
318.15 K | 336.8 ± 11
319.15 K | 337.6 ± 11
320.15 K | 338.3 ± 11
321.15 K | 339.8 ± 11
322.15 K | 340.7 ± 11
323.15 K | 343.5 ± 11
324.15 K | 344.4 ± 11
325.15 K | 345.5 ± 12
326.15 K | 346.3 ± 12
327.15 K | 347.4 ± 12
328.15 K | 348.5 ± 12
329.15 K | 349.7 ± 12
330.15 K | 350.6 ± 12
331.15 K | 351.4 ± 12
332.15 K | 352.2 ± 12
333.15 K | 353.2 ± 12
334.15 K | 354.1 ± 12
335.15 K | 355 ± 12
336.15 K | 356.1 ± 12
337.15 K | 357.1 ± 12
338.15 K | 358.3 ± 12
339.15 K | 359.3 ± 12
340.15 K | 359.9 ± 12
341.15 K | 360.8 ± 12
342.15 K | 362 ± 12
343.15 K | 363.1 ± 12
344.15 K | 363.9 ± 12
345.15 K | 364.6 ± 12
346.15 K | 365.7 ± 12
347.15 K | 366.7 ± 12
348.15 K | 367.5 ± 12
349.15 K | 368.3 ± 12
350.15 K | 369.4 ± 12
351.15 K | 370.6 ± 12
352.15 K | 371.3 ± 12
353.15 K | 374.6 ± 12
354.15 K | 375.6 ± 12
355.15 K | 376.7 ± 12
356.15 K | 378.1 ± 12
357.15 K | 379 ± 13
358.15 K | 379.6 ± 13
359.15 K | 380.8 ± 13
360.15 K | 381.6 ± 13
361.15 K | 382.3 ± 13
362.15 K | 383 ± 13
363.15 K | 383.8 ± 13
364.15 K | 384.8 ± 13
365.15 K | 386.1 ± 13
366.15 K | 387.2 ± 13
367.15 K | 387.8 ± 13
368.15 K | 389.1 ± 13
369.15 K | 391 ± 13
370.15 K | 393.2 ± 13
371.15 K | 395.8 ± 13
372.15 K | 396.3 ± 13
373.15 K | 397.3 ± 13

Conditions | Molar enthalpy of transition or fusion [kJ/mol] | Normal melting temperature [°C]
[2] | 27.3 ± 0.7 | –
[3] | – | 162.1 ± 0.5

[3]
Conditions | vapor or sublimation pressure [kPa]
342.25 K | 3.35e-06 ± 1.9e-07
344.44 K | 4.39e-06 ± 2.5e-07
347.56 K | 6.8e-06 ± 4e-07
351.64 K | 1.11e-05 ± 6e-07
353.37 K | 1.42e-05 ± 8e-07
356.81 K | 1.93e-05 ± 1e-06
358.08 K | 2.17e-05 ± 1.2e-06
